Where “and” joins values, the source holds several entries; their conditions need not be identical. Equal entries are not always repeated. Where two headings read alike, the source gives them in different places. Marks after values point to notes of the source that are not given here.
Key:
[1] = oral administration with cysteine (Hassan M. Ali et al., 1984); cited from earlier work
[2] = tested on: mice exposed to 6, 8 and 10 Gy gamma radiation
Source text: (§1) Male Swiss albino mice (Mus musculus), 6-8 weeks old with 25±3 g body weight from an inbred colony (obtained from Hamadard University, Delhi, India) were used for the present study. Animals were maintained under controlled conditions of temperature and light in an animal house and were provided with standard mice feed (procured from Hindustan Lever's Ltd. Delhi, India) and water ad libitum.
Cobalt teletherapy unit (ATC-C9) at the Cancer treatment centre, Radiotherapy Department, SMS Medical College & Hospital, Jaipur, India, was used for irradiation.
(§2) Thirty minutes after the last administration, the animals were exposed to 8 Gy gamma radiation. Survival of the animals was recorded for 30 days after irradiation. The reduced glutathione (GSH) and lipid peroxidation (LPO) levels in liver and blood were estimated after 30 minutes of radiation exposure.
The protective capacity of an agent (chemical or plant extract) is expressed as dose reduction factor (DRF). It can be calculated by dividing the LD50/30 of experimental animals by LD^50/30 of control animals.
Mice of both groups (control as well as experimental) exposed to 6, 8 and 10 Gy gamma radiation were checked daily for 30 days and the percentage of mice surviving 30 days of exposure against each radiation dose was used to construct survival-dose response curves.
The results obtained are expressed as mean±SE. Student's “t” test was used to make a statistical comparison between the groups. Significance levels were set at P<0.05, P<0.01 and P<0.001. Regression analysis was done to obtain LD50/30 values and to determine the dose reduction factor (DRF).

spleen = conditions: day 10 post-irradiation
Method: The weight of the spleen at each autopsy interval (day 1, 3, 7, 10, 14 and 30 post-irradiation) was determined to study changes.

[3] = 50, 100, 200 or 400 kg/body weight/day orally for 2 consecutive days, observed 30 days
Source text: as §1

[4] = tested on: endogenous spleen colony forming units (CFU-S); conditions: day 10 post-irradiation
Method: The endogenous spleen colony assay was done according to the method of Till and McCulloch. Endogenous spleen colony forming units (CFU-S) were determined on day 10 after irradiation. Animals were sacrificed by cervical dislocation. Their spleens were removed, weighed and fixed in Bouin's fixative. Grossly visible nodules on the surface of the spleen were counted with the naked eye.

[5] = tested on: reduced glutathione (GSH)
Method: as §2
The hepatic level of reduced glutathione (GSH) was determined as per the standard method. GSH content in blood was measured
Spectrophotometrically using Ellman's reagent (DTNB) as a colouring reagent. The absorbance was read at 412 nm using a UV-VIS Systronics Spectrophotometer.

Cc1c(-c2cnccn2)ssc1=S
extent and rate of bioavailability [1]: marked increase
radiation sickness ([2]; 100 mg/kg body weight/day before 6 Gy): No radiation sickness was observed
30-Day Survival Percentage ([2]; 100 mg/kg body weight/day orally, 2 days, before 6 Gy): 100%
30-Day Survival Percentage ([2]; 100 mg/kg body weight/day orally, 2 days, before 8 Gy): 61%
30-Day Survival Percentage ([2]; 100 mg/kg body weight/day orally, 2 days, before 10 Gy): 20%
LD50/30 of experimental animals ([2]; 100 mg/kg body weight/day orally, 2 days, before radiation, regression analysis of survival data): 8.82 Gy and 8.51 Gy
DRF (dose reduction factor) ([2]; LD50/30 of experimental animals divided by LD50/30 of control animals): 1.34
optimum dose exhibiting maximum radioprotection ([2]; for 2 consecutive days before irradiation (8 Gy)): 100 mg/kg body weight/day
Spleen Weight (spleen; drug + 6 Gy): 42.44 ± 1.24^b mg
Spleen Weight (spleen; drug + 8 Gy): 32.62 ± 1.02^b mg
Spleen Weight (spleen; drug + 10 Gy): 34.38 ± 1.20^c mg
toxic effect (mortality or any other sign) [3]: did not produce any toxic effect
Number of macroscopic colonies ([4]; drug + 6 Gy): 10.22 ± 0.62
Number of macroscopic colonies ([4]; drug + 8 Gy): 13.80 ± 0.84^c
Number of macroscopic colonies ([4]; drug + 10 Gy): 15.22 ± 0.77^c
Blood GSH ([5]; drug + 6 Gy): 3.02 ± 0.12^c μg/ml
Liver GSH ([5]; drug + 6 Gy): 52.44 ± 1.54^b μmole/gm
Blood GSH ([5]; drug + 8 Gy): 2.88 ± 0.11^b μg/ml
Liver GSH ([5]; drug + 8 Gy): 54.62 ± 1.72^c μmole/gm
Blood GSH ([5]; drug + 10 Gy): 2.40 ± 0.12 µg/mL
Liver GSH ([5]; drug + 10 Gy): 44.38 ± 1.42^c μmole/gm
Blood GSH ([5]; drug alone, no irradiation): 4.18 ± 0.18 µg/mL
Liver GSH ([5]; drug alone, no irradiation): 65.68 ± 1.48 μmole/gm
